Test results as given in patent US12428394B2, “2,4-disubstituted pyrimidine derivative, preparation method therefor and use thereof” (CHENGDU ZENITAR BIOMEDICAL TECHNOLOGY CO., LTD., priority 2019, dated 2025).

Tests used:
[1] = system: MOLM-13 cells (FLT3-ITD-/+); assay: Inhibition of cell proliferation by MTT experiment, MOLM-13; assay type: cell-based, human; conditions: Homo sapiens, MOLM-13; MTT, 72 h; read-out: IC50 value on cell proliferation inhibition, MOLM-13 FLT3-ITD-/+
From the text: (§1) MV4-11, MOLM-13 and SET-2 were used to determine the influence of the test compound of the present invention on the activity of cancer cells. MV4-11 and MOLM-13 were human leukemia cell lines from American Type Culture Collection (ATCC), expressing FLT3 receptor and containing FLT3-ITD mutation; and SET-2 was a primary thrombocythemia cell purchased from Chengdu Bowerston Biotechnology Co., Ltd., China, continuously expressing JAK2 receptor and containing the mutation of V617F.
(§2) MV4-11, MOLM-13 and SET-2 cells were filled in a 96-well petri dish with 100 μL IMDM as the medium, containing 10% fetal bovine serum (100 mL/bottle, purchased from Grassland Lvye Bio-Engineering Materials Co., Ltd. and cryopreserved at −20° C.), and with 10,000-15,000 cells in each well. […] In each group, 3-5 replicate wells were set and incubated in 5% CO2 at 37° C. for 72 h. At the endpoint, 20 μL MTT (5 mg/mL) was added to each well, and the cells were incubated for another 1-3 h.
(§3) After the inhibition rate of each concentration of compound on cell proliferation activity was calculated, the dose-response curve and IC50 value were fitted by Graphpad prism software according to the compound treatment concentrations and corresponding inhibition rates.

FLT3 = target: T1, FLT3 (Homo sapiens, UniProt P36888); assay: In vitro kinase activity experiment, FLT3; assay type: biochemical; conditions: 40 min; inhibition rate of enzyme at 500 nM; measured by Eurofins; read-out: Kinase activity @ 500 nM (%) FLT3
T1 construct: purchased Eurofins
T1 sequence (P36888 27-993): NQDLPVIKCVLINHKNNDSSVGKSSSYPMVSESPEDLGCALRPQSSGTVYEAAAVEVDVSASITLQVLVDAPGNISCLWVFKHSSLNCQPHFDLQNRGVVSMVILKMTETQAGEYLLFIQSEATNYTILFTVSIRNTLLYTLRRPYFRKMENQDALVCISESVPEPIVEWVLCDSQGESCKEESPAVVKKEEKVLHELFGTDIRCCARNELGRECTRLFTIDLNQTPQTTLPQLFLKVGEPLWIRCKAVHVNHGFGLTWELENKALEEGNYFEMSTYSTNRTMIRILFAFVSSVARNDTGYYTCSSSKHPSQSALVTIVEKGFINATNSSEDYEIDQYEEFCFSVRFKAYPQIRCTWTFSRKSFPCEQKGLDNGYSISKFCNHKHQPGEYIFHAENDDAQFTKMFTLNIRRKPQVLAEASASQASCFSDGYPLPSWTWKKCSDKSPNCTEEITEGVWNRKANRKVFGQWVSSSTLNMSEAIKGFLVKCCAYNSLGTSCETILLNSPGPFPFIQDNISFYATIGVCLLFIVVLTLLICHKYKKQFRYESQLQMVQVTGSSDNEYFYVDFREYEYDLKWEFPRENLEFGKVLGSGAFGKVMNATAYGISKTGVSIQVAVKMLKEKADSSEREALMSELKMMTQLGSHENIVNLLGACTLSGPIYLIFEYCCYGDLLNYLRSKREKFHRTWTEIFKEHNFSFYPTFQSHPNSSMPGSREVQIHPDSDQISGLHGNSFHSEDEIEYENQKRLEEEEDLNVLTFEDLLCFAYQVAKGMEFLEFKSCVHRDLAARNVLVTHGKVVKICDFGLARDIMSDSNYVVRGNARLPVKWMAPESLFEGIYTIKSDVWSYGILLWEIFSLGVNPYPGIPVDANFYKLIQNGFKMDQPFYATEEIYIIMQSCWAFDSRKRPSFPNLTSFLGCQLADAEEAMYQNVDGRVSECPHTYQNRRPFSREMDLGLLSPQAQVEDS
Experimental: (§4) Buffer solution ([…], pH 7.0, 0.2 mm EDTA, 10 mM mncl2), kinase to be tested, substrate of kinase to be tested, 10 mM magnesium acetate and γ33P-ATP solution, and compounds with different concentrations were added to a reaction tube in turn, then MgATP was added to initiate the enzyme reaction process, and incubated at room temperature for 40 min. Then, the reaction was terminated with 5 μl of […], and 10 μl of the reaction solution was titrated onto the Filtermat A membrane, washed with 75 mM phosphate solution for three times, each time for 5 min., and then washed with methanol once. Finally, the Filtermat A membrane was dried and the scintillation count was carried out.

SET-2 cells (JAK2 V617F) = assay: Inhibition of cell proliferation by MTT experiment, SET-2; assay type: cell-based; conditions: Homo sapiens, SET-2; MTT, 72 h; read-out: IC50 value on cell proliferation inhibition, SET-2 (V617F)
From the text: as §1, §2, §3

JAK2 = target: T2, JAK2 (Homo sapiens, UniProt O60674); assay: In vitro kinase activity experiment, JAK2; assay type: biochemical; conditions: inhibition rate of enzyme at 500 nM; measured by Eurofins
T2 construct: purchased Eurofins
T2 sequence (O60674 whole entry): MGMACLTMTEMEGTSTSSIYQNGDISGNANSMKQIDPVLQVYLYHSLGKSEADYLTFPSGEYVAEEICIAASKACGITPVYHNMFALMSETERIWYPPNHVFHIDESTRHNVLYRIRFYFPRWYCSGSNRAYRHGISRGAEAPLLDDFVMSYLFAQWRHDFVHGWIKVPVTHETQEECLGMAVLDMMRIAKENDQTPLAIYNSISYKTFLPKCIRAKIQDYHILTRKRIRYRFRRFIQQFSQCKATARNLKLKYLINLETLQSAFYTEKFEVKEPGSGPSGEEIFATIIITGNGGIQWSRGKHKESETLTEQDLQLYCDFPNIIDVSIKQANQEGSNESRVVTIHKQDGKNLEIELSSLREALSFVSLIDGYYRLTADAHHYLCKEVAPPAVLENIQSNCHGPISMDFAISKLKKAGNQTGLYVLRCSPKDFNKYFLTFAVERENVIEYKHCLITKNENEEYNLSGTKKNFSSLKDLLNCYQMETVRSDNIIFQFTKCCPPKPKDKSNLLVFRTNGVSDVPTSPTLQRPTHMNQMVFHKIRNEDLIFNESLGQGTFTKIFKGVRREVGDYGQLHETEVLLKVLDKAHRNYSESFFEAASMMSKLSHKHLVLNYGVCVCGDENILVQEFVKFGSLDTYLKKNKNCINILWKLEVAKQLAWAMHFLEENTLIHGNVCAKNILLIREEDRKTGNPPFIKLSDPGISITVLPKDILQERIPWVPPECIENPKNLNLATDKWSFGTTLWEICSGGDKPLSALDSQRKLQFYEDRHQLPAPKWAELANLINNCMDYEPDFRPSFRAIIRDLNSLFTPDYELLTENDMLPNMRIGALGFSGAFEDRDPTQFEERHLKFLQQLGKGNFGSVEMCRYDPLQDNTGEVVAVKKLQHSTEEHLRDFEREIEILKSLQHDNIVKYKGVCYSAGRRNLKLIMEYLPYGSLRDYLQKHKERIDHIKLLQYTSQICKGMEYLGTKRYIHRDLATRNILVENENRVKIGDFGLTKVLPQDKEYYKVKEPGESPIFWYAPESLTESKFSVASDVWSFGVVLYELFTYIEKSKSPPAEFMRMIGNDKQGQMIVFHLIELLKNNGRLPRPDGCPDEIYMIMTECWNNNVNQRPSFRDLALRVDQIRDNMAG
Experimental: as §4

[2] = system: MV4-11 cells (FLT3-ITD+/+); assay: Inhibition of cell proliferation by MTT experiment, MV4-11; assay type: cell-based, human; conditions: Homo sapiens, MV4-11; MTT, 72 h; read-out: IC50 value on cell proliferation inhibition, MV4-11 FLT3-ITD+/+
From the text: as §1, §2, §3

| Compound | IC50 [1] [nM] | inhibition at 0.5 µM (FLT3) [%] | Kinase activity @ 500 nM (%) JAK2 (JAK2) [%] | IC50 [2] [nM] | IC50 (SET-2 cells (JAK2 V617F)) [nM] |
| --- | --- | --- | --- | --- | --- |
| CC(C)n1cc(-c2nc(Nc3cccc(N4CCN(C)CC4)c3)ncc2F)cn1 [CLJ-19, 5-fluoro-N-(3-(4-methylpiperazine-1-yl)phenyl)-4-(1-isopropyl-1H-pyrazol-4-yl) pyrimidine-2-amine] | 100 to 1000 | 95 | 92 | 10 to 100 | 100 to 1000 |
| CCCCN1CCN(c2ccc(Nc3ncc(F)c(-c4cnn(C(C)C)c4)n3)nc2)CC1 [CLJ-20, 5-fluoro-N-(5-(4-butylpiperazine-1-yl)pyridine-2-yl)-4-(1-isopropyl-1H-pyrazole-4-yl) pyrimidine-2-amine] | 100 to 1000 | 95 | 97 | 100 to 1000 | 100 to 1000 |
| CCN1CCN(Cc2ccc(Nc3ncc(F)c(-c4cnn(C(C)C)c4)n3)nc2)CC1 [CLJ-21, 5-fluoro-N-(5-((4-ethylpiperazine-1-yl)methyl)pyridine-2-yl)-4-(1-isopropyl-1H-pyrazole-4-yl) pyrimidine-2-amine] | 100 to 1000 | 75 | 89 | 100 to 1000 | 100 to 1000 |
| CC(C)n1cc(-c2nc(Nc3ccc(N4CCN(C)CC4)cc3)ncc2F)cn1 [CLJ-22, 5-fluoro-N-(4-(4-methylpiperazine-1-yl)phenyl)-4-(1-isopropyl-1H-pyrazol-4-yl) pyrimidine-2-amine] | 100 to 1000 | 80 | 79 | 100 to 1000 | 100 to 1000 |
| CC(C)n1cc(-c2nc(Nc3ccc(N4CCN(C)CC4)cc3F)ncc2F)cn1 [CLJ-23, 5-fluoro-N-(2-fluoro-4-(4-methylpiperazine-1-yl)phenyl)-4-(1-isopropyl-1H-pyrazol-4-yl) pyrimidine-2-amine] | > 1000 | 40 | 49 | 100 to 1000 | 100 to 1000 |
| CC(C)n1cc(-c2nc(Nc3ccc(N4CCN(C)CC4)c(F)c3)ncc2F)cn1 [CLJ-24, 5-fluoro-N-(3-fluoro-4-(4-methylpiperazine-1-yl)phenyl)-4-(1-isopropyl-1H-pyrazol-4-yl) pyrimidine-2-amine] | > 1000 | 32 | 28 | 100 to 1000 | > 1000 |
| CCN1CCN(c2ccc(Nc3ncc(F)c(-c4cnn(C(C)C)c4)n3)cc2F)CC1 [CLJ-26, 5-fluoro-N-(3-fluoro-4-(4-ethylpiperazine-1-yl)phenyl)-4-(1-isopropyl-1H-pyrazole-4-yl) pyrimidine-2-amine] | > 1000 | 30 | 19 | > 1000 | > 1000 |
| CC(C)n1cc(-c2nc(Nc3ccc(N4CCCC4)c(F)c3)ncc2F)cn1 [CLJ-27, 5-fluoro-N-(3-fluoro-4-(pyrrolidine-1-yl)phenyl)-4-(1-isopropylpyrazol-4-yl) pyrimidine-2-amine] | > 1000 | 24 | 34 | 100 to 1000 | > 1000 |
| COc1cc(Nc2ncc(F)c(-c3cnn(C(C)C)c3)n2)ccc1N1CCN(C)CC1 [CLJ-28, 5-fluoro-N-(3-methoxy-4-(4-methylpiperazine-1-yl)phenyl)-4-(1-isopropyl-1H-pyrazol-4-yl) pyrimidine-2-amine] | > 1000 | 21 | 25 | > 1000 | > 1000 |
| CCN1CCN(c2ccc(Nc3ncc(C)c(-c4cnn(C(C)C)c4)n3)cc2F)CC1 [CLJ-30] | 100 to 1000 | 96 | 89 | 10 to 100 | 100 to 1000 |
| CC(C)n1cc(-c2nc(Nc3ccc(N4CCN(C5CCN(C)CC5)CC4)cc3)ncc2F)cn1 [CLJ-31, 5-fluoro-N-(4-(4-(1-methylpiperidine-4-yl)piperazine-1-yl)phenyl)-4-(1-isopropyl-1H-pyrazole-4-yl) pyrimidine-2-amine] | > 1000 | 18 | 25 | > 1000 | > 1000 |

Continued, in another order:

| IC50 [1] [nM] | inhibition at 0.5 µM (FLT3) [%] | Kinase activity @ 500 nM (%) JAK2 (JAK2) [%] | IC50 [2] [nM] | Compound | IC50 (SET-2 cells (JAK2 V617F)) [nM] |
| --- | --- | --- | --- | --- | --- |
| 100 to 1000 | 95 | 90 | 10 to 100 | CC(C)n1cc(-c2nc(Nc3ccc(N4CCN(C5CCN(C)CC5)CC4)c(F)c3)ncc2F)cn1 [CLJ-32, 5-fluoro-N-(3-fluoro-4-(4-(1-methylpiperidine-4-yl)piperazine-1-yl)phenyl)-4-(1-isopropyl-1H-pyrazole-4-yl) pyrimidine-2-amine] | 100 to 1000 |
| > 1000 | 23 | 34 | > 1000 | CC(C)n1cc(-c2nc(Nc3ccc(N4CCC(N5CCCCC5)CC4)c(F)c3)ncc2F)cn1 [CLJ-33] | > 1000 |
| 100 to 1000 | 95 | 93 | 10 to 100 | Cc1nn(C(C)C)cc1-c1nc(Nc2ccc(N3CCN(C)CC3)c(F)c2)ncc1F [CLJ-34] | 100 to 1000 |
| 100 to 1000 | 91 | 92 | 10 to 100 | Cc1c(-c2nc(Nc3ccc(N4CCN(C)CC4)c(F)c3)ncc2F)cnn1C(C)C [CLJ-35] | 100 to 1000 |
| 10 to 100 | 99 | 97 | 10 to 100 | CC(C)n1cc(-c2nc(Nc3ccc(N4CCC(N(C)C)CC4)c(F)c3)ncc2F)cn1 [CLJ-36, 5-fluoro-N-(3-fluoro-4-(4-dimethylaminopiperidine-1-yl)phenyl)-4-(1-isopropyl-1H-pyrazole-4-yl) pyrimidine-2-amine] | 100 to 1000 |
| 100 to 1000 | 97 | 98 | 10 to 100 | COc1cc(Nc2ncc(F)c(-c3cnn(C(C)C)c3)n2)ccc1N1CCC(N(C)C)CC1 [CLJ-37, 5-fluoro-N-(3-methoxy-4-(4-dimethylaminopiperidine-1-yl)phenyl)-4-(1-isopropyl-1H-pyrazole-4-yl) pyrimidine-2-amine] | 100 to 1000 |
| 100 to 1000 | 90 | 94 | 10 to 100 | COc1cc(Nc2ncc(C)c(-c3cnn(C(C)C)c3)n2)ccc1N1CCC(N(C)C)CC1 [CLJ-39, 5-methyl-N-(3-methoxy-4-(4-dimethylaminopiperidine-1-yl)phenyl)-4-(1-isopropyl-1H-pyrazole-4-yl) pyrimidine-2-amine] | 100 to 1000 |
